The test concerns the target T1, 20S proteasome (chymotrypsin-like activity, β5 subunit) (Oryctolagus cuniculus, UniProt G1T4Q9).
T1 construct: gene PSMB5; purified rabbit 20S proteasome; with other subunits of the 20S proteasome
T1 sequence (G1T4Q9 1-263): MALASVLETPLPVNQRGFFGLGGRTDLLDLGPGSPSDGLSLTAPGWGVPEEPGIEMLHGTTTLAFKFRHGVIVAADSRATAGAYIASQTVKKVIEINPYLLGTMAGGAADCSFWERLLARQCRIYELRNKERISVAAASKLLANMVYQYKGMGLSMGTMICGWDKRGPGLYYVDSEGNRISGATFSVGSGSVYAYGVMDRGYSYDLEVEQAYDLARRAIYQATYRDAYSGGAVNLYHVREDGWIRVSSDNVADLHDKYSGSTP
Put plainly: fluorogenic peptide CT-like activity assay on purified. In kind it is biochemical.

The molecule `CCC[CH2][Sn]([Cl])([CH2]CCC)[CH2]CCC` [TBT, tributyltin chloride] returned an IC50 of 15.6 µM. That is a double-digit micromolar value.

The values above are taken from article PMC2661907, “The Proteasome Is a Molecular Target of Environmental Toxic Organotins” (Environmental Health Perspectives, 2008).
